# Experimental data taken from ChEMBL document CHEMBL5512643, “Structure-based discovery of potent myosin inhibitors to guide antiparasite drug development” (Eur J Med Chem, 2024).
# Active and inactive are the calls of the source. No cut-off for these calls is given here.
# Tests used:
# [1] = tested on: Gyrodactylus kobayashii; assay: Binding affinity to Gyrodactylus kobayashii Myosin expressed in Escherichia coli BL21 assessed as thermal stabilization at 1 mM at 40 to 50 degreeC by CETSA analysis
# [2] = Inhibition of wild type Gyrodactylus kobayashii Myosin ATPase activity incubated for 30 mins
# [3] = Inhibition of Gyrodactylus kobayashii Myosin N439A mutant ATPase activity incubated for 30 min
# [4] = tested on: Gyrodactylus kobayashii; assay: Antiparasitic activity against Gyrodactylus kobayashii infected in gold fish measured upto 48 hrs by stereomicroscope analysis; type: functional, organism-based
# [5] = Acute toxicity in gold fish infected with Gyrodactylus kobayashii measure upto 48 hrs by microscopic analysis; conditions: carassius auratus
# [6] = Therapeutic index, ratio of LC50 for acute toxicity in gold fish infected with Gyrodactylus kobayashii to EC50 for antiparasitic activity against Gyrodactylus kobayashii infected in gold fish; conditions: goldfish
# [7] = tested on: SARS-CoV-2; assay: Antiviral activity against SARS-CoV-2 infected in African green monkey Vero cells assessed as inhibition of viral replication pretreated with compound for 2 hr followed by viral infection and measured after 48 hrs by indirect immunofluorescence assay; type: functional, organism-based; conditions: Severe acute respiratory syndrome coronavirus 2, Vero
# [8] = Gyrodactylus kobayashii, 48 h, read-out: EC50
SMILES,"EC50 [4, 8]",LC50 at 48 h [5],other results
COc1cc(C[C@H]2C(=O)OC[C@@H]2Cc2ccc(OC)c(OC)c2)ccc1O [ARCTIGENIN],1.85 µg/mL,11.6 µg/mL,Activity [1]: Active; IC50 [2]: 677 µM; IC50 [3]: 3210 µM
CCCCC[C@H](O)/C=C/[C@H]1[C@H](O)CC(=O)[C@@H]1CCCCCCC(=O)O [ALPROSTADIL],16.2 µg/mL,30.5 µg/mL,
O=C1OC[C@H]2O[C@@H](Oc3cc(O)c(C(=O)CCc4ccccc4)c(O)c3)[C@H](O)[C@@H](O)[C@@H]2OC(=O)c2cc(O)c(O)c(O)c2-c2c1cc(O)c(O)c2O [THONNINGIANIN B],6.31 µg/mL,21.5 µg/mL,
O=c1cc(-c2ccccc2)oc2c([C@@H]3OC[C@H](O)[C@H](O)[C@H]3O)c(O)c([C@@H]3O[C@H](CO)[C@@H](O)[C@H](O)[C@H]3O)c(O)c12,7.58 µg/mL,,
O=C1c2ccccc2C(=O)c2c1cc(O[C@@H]1O[C@H](CO[C@@H]3OC[C@@H](O)[C@H](O)[C@H]3O)[C@@H](O)[C@H](O)[C@H]1O)c(CO)c2O [LUCIDIN PRIMEVOROSIDE],4.15 µg/mL,8.24 µg/mL,
CC(C)=CC[C@@H](O)C1=CC(=O)c2c(O)ccc(O)c2C1=O [SHIKONIN],0.371 µg/mL,1.29 µg/mL,IC50 [2]: 140 µM; EC50 [4]: 0.37 µg/mL; selectivity ratio [6]: 3.49
C[C@@H]1O[C@@H](Oc2cc(O)c3c(=O)c(O)c(-c4ccc(O)cc4)oc3c2)[C@H](O)[C@H](O)[C@H]1O [ALPHA-RHAMNOISOROBIN],8.27 µg/mL,9.3 µg/mL,
O=C1C=CC(=O)c2ccccc21 [NAPHTHOQUINONE],0.047 µg/mL,0.23 µg/mL,selectivity ratio [6]: 4.89
O=C(/C=C/c1ccccc1)c1ccccc1 [CHALCONE],1.08 µg/mL,7.66 µg/mL,IC50 [2]: 440 µM
COC(=O)[C@H]1O[C@@H](Oc2cc3oc(-c4ccc(O)cc4)cc(=O)c3c(O)c2O)[C@H](O)[C@@H](O)[C@@H]1O,7.23 µg/mL,11.4 µg/mL,
COc1cc(C2Oc3ccc(C4Oc5cc(O)cc(O)c5C(=O)C4O)cc3OC2CO)ccc1O (configuration not stated),7.53 µg/mL,26.2 µg/mL,
CO[C@H]1C[C@H](O[C@H]2CC[C@]3(C)[C@H]4CC[C@]5(C)[C@@H](C6=CC(=O)OC6)CC[C@]5(O)[C@@H]4CC[C@]3(O)C2)O[C@H](C)[C@H]1O[C@@H]1O[C@H](CO)[C@@H](O)[C@H](O)[C@H]1O,3.89 µg/mL,4.12 µg/mL,
C#CCC(Cc1cnc2nc(N)nc(N)c2n1)c1ccc(C(=O)N[C@@H](CCC(=O)O)C(=O)O)cc1 (some centres not stated) [PRALATREXATE],,,EC50 [7]: 0.008 µM
C[C@@H]1O[C@@H](O[C@H]2C(=O)c3c(O)cc(O)cc3O[C@H]2c2ccc(O)c(O)c2)[C@H](O)[C@H](O)[C@H]1O,15.9 µg/mL,26.5 µg/mL,LC50 ([5]; 48 h): 24.975 µg/mL
O=C(O)[C@H]1O[C@@H](Oc2cc3oc(-c4ccc(O)cc4)cc(=O)c3c(O)c2O)[C@H](O)[C@@H](O)[C@@H]1O [SCUTELLARIN],7.15 µg/mL,13.3 µg/mL,
NC(=O)[C@@H]1CCCN1C(=O)[C@H](Cc1cnc[nH]1)NC(=O)[C@@H]1CCC(=O)N1 [PROTIRELIN],9.52 µg/mL,16.3 µg/mL,
C[C@@H]1O[C@@H](Oc2cc(O)c3c(=O)c(O)c(-c4ccc(O)cc4)oc3c2O)[C@H](O)[C@H](O[C@@H]2O[C@H](CO)[C@@H](O)[C@H](O)[C@H]2O)[C@H]1O,11.3 µg/mL,13.2 µg/mL,
CC1=CC(=O)c2ccccc2C1=O [MENADIONE],0.341 µg/mL,1.19 µg/mL,selectivity ratio [6]: 3.5
O=C1C=C(O)C(=O)c2ccccc21 [LAWSONE],3.53 µg/mL,10.7 µg/mL,selectivity ratio [6]: 3.03
Cc1c([C@H](C)[C@@H]2NC[C@@H](C)C[C@H]2O)ccc2c1C[C@H]1[C@H]2CC=C2C[C@@H](O[C@@H]3O[C@H](CO)[C@@H](O)[C@H](O)[C@H]3O)CC[C@@]21C,4.58 µg/mL,15.2 µg/mL,
COc1ccc(CCC(=O)c2c(O)cc(O[C@@H]3O[C@H](CO)[C@@H](O)[C@H](O)[C@H]3O[C@@H]3O[C@@H](C)[C@H](O)[C@@H](O)[C@H]3O)cc2O)cc1O [NEOHESPERIDIN DIHYDROCHALCONE],13.4 µg/mL,25.5 µg/mL,
O=C1C=CC(=O)c2c(O)cccc21 [JUGLONE],0.72 µg/mL,,
